Results as given in PubChem BioAssay AID330 (DTP/NCI, 2004).
“And” between values parts separate entries of the source, which are not always exact repeats. Identical values can stand only once. Inconclusive results and toxic doses are left out. The calls were made as follows: active = survival T/C of 150% or more; inactive = T/C below 125% in these data.

System: P388 leukemia ip, CD2F1 mice, survival T/C
Assay: NCI In Vivo Anticancer Drug Screen. Data for tumor model P388 Leukemia (intraperitoneal) in CD2F1 (CDF1) mice
Conditions: endpoint: median survival time, higher = longer survival
In short: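 Mice carrying the transplanted tumor received test compound or vehicle. Survival was recorded in each group, and the value is the treated-group measurement divided by that of the vehicle-treated control group.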

[1] = dose: 25.0 mg/kg/injection, schedule: Q01DX009 (ip), vehicle: saline with Tween-80
[2] = dose: 50.0 mg/kg/injection, schedule: Q01DX009 (ip), vehicle: saline with Tween-80
[3] = dose: 100.0 mg/kg/injection, schedule: Q01DX009 (ip), vehicle: saline with Tween-80
[4] = dose: 50.0 mg/kg/injection, schedule: Q01DX005 (ip), vehicle: saline with Tween-80
[5] = dose: 100.0 mg/kg/injection, schedule: Q01DX005 (ip), vehicle: saline with Tween-80
[6] = dose: 200.0 mg/kg/injection, schedule: Q01DX005 (ip), vehicle: saline with Tween-80
[7] = dose: 100.0 mg/kg/injection, schedule: Q04DX002 (ip), vehicle: saline with Tween-80
[8] = dose: 200.0 mg/kg/injection, schedule: Q04DX002 (ip), vehicle: saline with Tween-80
[9] = dose: 400.0 mg/kg/injection, schedule: Q04DX002 (ip), vehicle: saline with Tween-80
[10] = dose: 400.0 mg/kg/injection, schedule: Q04DX003 (ip), vehicle: saline with Tween-80
[11] = dose: 50.0 mg/kg/injection, schedule: Q01DX009 (ip), vehicle: saline
[12] = dose: 100.0 mg/kg/injection, schedule: Q01DX009 (ip), vehicle: saline
[13] = dose: 60.0 mg/kg/injection, schedule: Q01DX005 (ip), vehicle: saline with Tween-80
[14] = dose: 120.0 mg/kg/injection, schedule: Q01DX005 (ip), vehicle: saline with Tween-80
[15] = dose: 240.0 mg/kg/injection, schedule: Q01DX005 (ip), vehicle: saline with Tween-80
[16] = dose: 50.0 mg/kg/injection, schedule: Q01DX005 (ip), vehicle: Klucel (hydroxypropylcellulose) (HPC)
[17] = dose: 15.0 mg/kg/injection, schedule: Q01DX005 (ip), vehicle: saline
[18] = dose: 50.0 mg/kg/injection, schedule: Q01DX005 (ip), vehicle: saline
[19] = dose: 100.0 mg/kg/injection, schedule: Q01DX005 (ip), vehicle: saline
[20] = dose: 200.0 mg/kg/injection, schedule: Q01DX005 (ip), vehicle: saline

Measured: T/C

O=C(O)c1cnc2cc(Cl)ccc2n1
inactive: [1] 100 % of control | [2] 100 % of control | [3] 95 % of control

CC(C(=O)O)c1ccc2c(c1)Cc1ccccc1-2 (stereo not given)
inactive: dose: 12.5 mg/kg/injection, schedule: Q01DX009 (ip), vehicle: saline with Tween-80 108 % of control | [1] 106 % of control | [2] 105 % of control and 86 % of control

CN(C)C1C(=O)C(C(=O)NCNC2C(=O)N3C2SC(C)(C)C3C(=O)O)=C(O)C2(O)C(=O)C3=C(O)c4c(O)cccc4C(C)(O)C3CC12 (stereo not given)
inactive: [4] 100 % of control | [5] 104 % of control | [6] 90 % of control

COc1cccc(N=C(C2=C(O)c3ccccc3C2=O)c2ccccc2)c1
inactive: [7] 101 % of control | [8] 97 % of control | [9] 100 % of control

CCC(C(N)=O)C1=CCCCC1 (stereo not given)
inactive: dose: 100.0 mg/kg/injection, schedule: Q04DX003 (ip), vehicle: saline with Tween-80 104 % of control | dose: 200.0 mg/kg/injection, schedule: Q04DX003 (ip), vehicle: saline with Tween-80 100 % of control | [10] 100 % of control

CN1C(=O)CC2(C)C1=CCc1scnc12 (stereo not given)
inactive: dose: 7.5 mg/kg/injection, schedule: Q01DX005 (ip), vehicle: saline with Tween-80 94 % of control | dose: 15.0 mg/kg/injection, schedule: Q01DX005 (ip), vehicle: saline with Tween-80 99 % of control | dose: 30.0 mg/kg/injection, schedule: Q01DX005 (ip), vehicle: saline with Tween-80 99 % of control

CO[C@H]1[C@H]2OC(C)(C)O[C@H]2O[C@H]1/C=C1\CC(=O)NC1=O
inactive: [11] 111 % of control | dose: 50.0 mg/kg/injection, schedule: Q01DX009 (ip), vehicle: suspension in saline 96 % of control | [12] 116 % of control | dose: 100.0 mg/kg/injection, schedule: Q01DX009 (ip), vehicle: suspension in saline 104 % of control | dose: 200.0 mg/kg/injection, schedule: Q01DX009 (ip), vehicle: suspension in saline 110 % of control

COc1ccccc1C(c1cc2c(cc1O)OCO2)N1CCOCC1 (stereo not given)
inactive: [13] 117 % of control | [14] 115 % of control | [15] 122 % of control

COC1(C2COc3cc(OCc4ccccc4)ccc3C2=O)C=C2OCOC2=CC1=O (stereo not given)
inactive: dose: 12.5 mg/kg/injection, schedule: Q01DX005 (ip), vehicle: Klucel (hydroxypropylcellulose) (HPC) 99 % of control | dose: 25.0 mg/kg/injection, schedule: Q01DX005 (ip), vehicle: Klucel (hydroxypropylcellulose) (HPC) 96 % of control | [16] 89 % of control

O=CC(=C\c1ccco1)/C(C=O)=C\c1ccco1
inactive: [4] 97 % of control | [5] 112 % of control

CNC(=O)N=Nc1ccccc1
inactive: dose: 50.0 mg/kg/injection, schedule: Q01DX005 (ip), vehicle: saline + Tween-80 + alcohol 100 % of control | dose: 100.0 mg/kg/injection, schedule: Q01DX005 (ip), vehicle: saline + Tween-80 + alcohol 100 % of control | dose: 200.0 mg/kg/injection, schedule: Q01DX005 (ip), vehicle: saline + Tween-80 + alcohol 100 % of control

OCCN1CCOC(O)(c2cccc(C(F)(F)F)c2)C1 (stereo not given)
inactive: [4] 101 % of control | [5] 95 % of control | [6] 96 % of control

ClC(Cl)(Cl)c1cccc(C(Cl)(Cl)Cl)c1
inactive: dose: 132.0 mg/kg/injection, schedule: Q04DX003 (ip), vehicle: Klucel (hydroxypropylcellulose) (HPC) 113 % of control | dose: 200.0 mg/kg/injection, schedule: Q04DX003 (ip), vehicle: Klucel (hydroxypropylcellulose) (HPC) 100 % of control | dose: 264.0 mg/kg/injection, schedule: Q04DX003 (ip), vehicle: saline with Tween-80 95 % of control | dose: 300.0 mg/kg/injection, schedule: Q04DX003 (ip), vehicle: Klucel (hydroxypropylcellulose) (HPC) 113 % of control | [10] 91 % of control | dose: 600.0 mg/kg/injection, schedule: Q04DX003 (ip), vehicle: saline with Tween-80 108 % of control

C/C(=C\c1ccc(OCC(=O)O)c(Cl)c1Cl)[N+](=O)[O-]
inactive: dose: 12.5 mg/kg/injection, schedule: Q01DX001 (ip), vehicle: saline with Tween-80 100 % of control and 102 % of control | dose: 25.0 mg/kg/injection, schedule: Q01DX001 (ip), vehicle: saline with Tween-80 98 % of control and 100 % of control

CCOc1cc2c(cc1C(C)c1ccc(O)c(OC)c1)OCO2 (stereo not given)
inactive: dose: 50.0 mg/kg/injection, schedule: Q01DX005 (ip), vehicle: distilled water + Tween-80 99 % of control | dose: 100.0 mg/kg/injection, schedule: Q01DX005 (ip), vehicle: distilled water + Tween-80 101 % of control | dose: 200.0 mg/kg/injection, schedule: Q01DX005 (ip), vehicle: distilled water + Tween-80 104 % of control

O=C1OC(c2ccccc2)c2cccnc21 (stereo not given)
inactive: [7] 101 % of control | [8] 92 % of control | [9] 98 % of control

N#CC1CCCC(C#N)N1CN1C(C#N)CCCC1C#N (stereo not given)
inactive: [16] 97 % of control | dose: 100.0 mg/kg/injection, schedule: Q01DX005 (ip), vehicle: Klucel (hydroxypropylcellulose) (HPC) 88 % of control

CC(=O)N=C1CSc2ccccc2N1C
inactive: dose: 50.0 mg/kg/injection, schedule: Q01DX005 (ip), vehicle: saline + alcohol 99 % of control | dose: 100.0 mg/kg/injection, schedule: Q01DX005 (ip), vehicle: saline + alcohol 103 % of control | dose: 200.0 mg/kg/injection, schedule: Q01DX005 (ip), vehicle: saline + alcohol 109 % of control

COc1ccc(/C(=N/SC)N(C)C)cc1
inactive: dose: 3.75 mg/kg/injection, schedule: Q01DX005 (ip), vehicle: saline 103 % of control | dose: 7.5 mg/kg/injection, schedule: Q01DX005 (ip), vehicle: saline 111 % of control | [17] 104 % of control

CCCCNC(c1ccc(N(CC)CC)cc1)C(Cl)(Cl)Cl (stereo not given)
inactive: [18] 105 % of control and 106 % of control | dose: 50.0 mg/kg/injection, schedule: Q01DX005 (ip), vehicle: water 100 % of control | [19] 108 % of control and 116 % of control | dose: 100.0 mg/kg/injection, schedule: Q01DX005 (ip), vehicle: water 93 % of control | [20] 110 % of control

CC(=O)O[C@H]1C(=O)C=C[C@H](C)[C@@H]2CC[C@H](OC(C)(C)C)[C@@]12C
inactive: [4] 102 % of control | [5] 98 % of control | [6] 108 % of control

CCCC1(CC(=O)O)OCCc2c1[nH]c1ccccc21 (stereo not given)
inactive: dose: 50.0 mg/kg/injection, schedule: Q01DX009 (ip), vehicle: Klucel (hydroxypropylcellulose) (HPC) 102 % of control | dose: 100.0 mg/kg/injection, schedule: Q01DX009 (ip), vehicle: Klucel (hydroxypropylcellulose) (HPC) 108 % of control

Oc1ccc(O)c([P+](c2ccccc2)(c2ccccc2)c2ccccc2)c1
inactive: [2] 111 % of control | [3] 115 % of control

COC(=O)/C=C(/Nc1c(Cl)sc2ccccc2c1=O)C(=O)OC
inactive: [4] 97 % of control | [5] 97 % of control | [6] 95 % of control

CC(C)SSC(=O)N1CCCC1C(=O)O (stereo not given)
inactive: [17] 106 % of control | dose: 30.0 mg/kg/injection, schedule: Q01DX005 (ip), vehicle: saline 98 % of control | dose: 60.0 mg/kg/injection, schedule: Q01DX005 (ip), vehicle: saline 98 % of control

CC(=O)OCCN1CCOC(O)(c2cccc(C(F)(F)F)c2)C1 (stereo not given)
inactive: [13] 115 % of control | [14] 108 % of control | [15] 113 % of control

[Co].[NH-]CC[NH-].[NH-]CC[NH-].[NH-]CC[NH-]
inactive: dose: 25.0 mg/kg/injection, schedule: Q01DX009 (ip), vehicle: saline 100 % of control | [11] 111 % of control | dose: 50.0 mg/kg/injection, schedule: Q04DX002 (ip), vehicle: saline with Tween-80 100 % of control | [12] 105 % of control | [7] 102 % of control | [8] 106 % of control

Cc1c(O)cnc2nn(-c3ccccc3)c(=N)n12
inactive: [13] 91 % of control | [14] 92 % of control | [15] 90 % of control

O=C1CSC(c2cccc(O)c2)N1c1nncs1 (stereo not given)
inactive: [13] 114 % of control | [14] 107 % of control | [15] 95 % of control

CC1=NN(C(=O)CC(=O)Nc2ccc(C(=O)O)cc2)C(=O)C1N=Nc1ccccc1 (stereo not given)
inactive: [18] 105 % of control | [19] 102 % of control | [20] 108 % of control
